Earlier results as cited in patent publication US20160220518A1 (iCeutica, Inc., priority 2009, published 2016).

Settings: in vivo

excreted in the urine as 6-0-desmethyl naproxen: < 1% | excreted in the urine as naproxen: < 1% | fraction of any dose excreted in the urine: Approximately 95% | fraction of the administered dose excreted in the feces: ≤ 3%
Compound: COc1ccc2cc([C@H](C)C(=O)O)ccc2c1 [naproxen]
